Source: patent publication US20240043470A1, “MACROCYCLIC COMPOUNDS AS PROTEASOME INHIBITORS” (CORNELL UNIVERSITY, priority 2017, published 2024)

Experiments:
β5c of hu c-20S = β5c of hu c-20S (Homo sapiens (Human), UniProt P20618+P28074); experiment: IC50 determination against β5c of human constitutive proteasome (suc-LLVY-AMC hydrolysis); assay type: biochemical; details: 0.2 nM c-20S, 25 μM suc-LLVY-AMC;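 also: IC50 obtained by fitting initial reaction velocities to a dose-dependent inhibition model, with SDS present as proteasome activator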
β5i of hu i-20S = β5i of hu i-20S (Homo sapiens (Human), UniProt P20618+P28062); experiment: IC50 determination against β5i of human immunoproteasome (Ac-ANW-AMC hydrolysis); assay type: biochemical; details: for IC50: β5i, 0.4 nM i-20S, 15 μM Ac-ANW-AMC;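 as to all read-outs here: enzyme activity taken as the initial reaction velocity per well, with SDS added to activate the proteasome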

| SMILES | IC50 (β5c of hu c-20S) [µM] | IC50 (β5i of hu i-20S) [µM] | % @ […], hu i-20S (β5i of hu i-20S; compound at […]) [% @ 33.3 μM] |
| --- | --- | --- | --- |
| Cc1ccc(CNC(=O)[C@@H]2Cc3cccc(c3)Oc3cccc(c3)C[C@H](NC(=O)OC(C)(C)C)C(=O)N[C@@H](CCc3ccccc3)C(=O)N2)cc1 [Compound 1-68, tert-Butyl-((5S,8S,11S)-5-((4-methylbenzyl)carbamoyl)-7,10-dioxo-8-phenethyl-2-oxa-6,9-diaza-1,3(1,3)-dibenzenacyclododecaphane-11-yl)carbamate] | 17.9 | > 100 |  |
| O=C1CCCCCCCCCC[C@@H](C(=O)NCc2cccc3ccccc23)NC(=O)[C@H](CC(=O)N2CCCC2)N1 [Compound 4-06, (2S,5S)—N-(1-Naphthylmethyl)-3,16-dioxo-2-(2-oxo-2-pyrrolidin-1-yl-ethyl)-1,4-diazacyclohexadecane-5-carboxamide] | > 100 | 3.52 |  |
| CC(C)(C)OC(=O)N[C@H]1Cc2cccc(c2)Oc2cccc(c2)C[C@@H](C(=O)OCc2ccccc2)NC(=O)[C@H](CCc2ccccc2)NC1=O [Compound 1-50, Benzyl-(S,8S,11S)-11-((tert-butoxycarbonyl)amino)-7,10-dioxo-8-phenethyl-2-oxa-6,9-diaza-1,3(1,3)-dibenzenacyclododecaphane-5-carboxylate] | > 100 | > 100 |  |
| O=C1CCCCCCCCC[C@@H](C(=O)NCc2cccc3ccccc23)NC(=O)[C@H](CC(=O)N2CCCC2)N1 [Compound 4-07] | > 100 | 61.3 |  |
| O=C(N[C@H]1Cc2cccc(c2)Oc2cccc(c2)C[C@@H](C(=O)NCC(F)(F)F)NC(=O)[C@H](CCc2ccccc2)NC1=O)C1CC1 [Compound 1-54, (5S,8S,11S)-11-(Cyclopropanecarboxamido)-7,10-dioxo-8-phenethyl-N-(2,2,2-trifluoroethyl)-2-oxa-6,9-diaza-1,3(1,3)-dibenzenacyclododecaphane-5-carboxamide] | > 100 | > 100 |  |
| Cn1cc(CNC(=O)[C@@H]2Cc3cccc(c3)Oc3cccc(c3)C[C@H](NC(=O)CO)C(=O)N[C@@H](CCc3ccccc3)C(=O)N2)cn1 [Compound 1-05] | > 100 | 14.8 |  |
| O=C1CCc2cccc(c2)Oc2ccc(cc2)C[C@@H](C(=O)NCc2ccccc2F)NC(=O)[C@H](CC(=O)N2CCCC2)N1 [Compound 2-01-B, (5S,8S)—N-(2-Fluorobenzyl)-7,10-dioxo-8-(2-oxo-2-(pyrrolidin-1-yl)ethyl)-2-oxa-6,9-diaza-1(1,3),3(1,4)-dibenzenacyclododecaphane-5-carboxamide] | 75.4 | 0.845 |  |
| CN1C(=O)[C@H](CCN2CCOCC2)NC(=O)[C@@H](N2CCCC2=O)Cc2cccc(c2)Oc2cccc(c2)C[C@H]1C(=O)NCC(F)(F)F [Compound 1-86, (5S,8S,11S)-6-Methyl-8-(2-morpholinoethyl)-7,10-dioxo-11-(2-oxopyrrolidin-1-yl)-N-(2,2,2-trifluoroethyl)-2-oxa-6,9-diaza-1,3(1,3)-dibenzenacyclododecaphane-5-carboxamide] |  | 61 |  |
| CCN(CC)[C@H]1Cc2cccc(c2)Oc2cccc(c2)C[C@@H](C(=O)NCc2ccccc2)NC(=O)[C@H](CCc2ccccc2)NC1=O [Compound 1-16] | 22.9 | 100 |  |
| CCN(CC)[C@H]1Cc2cccc(c2)Oc2cccc(c2)C[C@@H](C(=O)NCc2cnn(C)c2)NC(=O)[C@H](CCc2ccccc2)NC1=O [Compound 1-02] | 0.55 |  |  |
| O=C(NC1CCCC1)[C@@H]1Cc2cccc(c2)Oc2cccc(c2)C[C@H](N2CCCS2(=O)=O)C(=O)N[C@@H](CCN2CCOCC2)C(=O)N1 [Compound 1-88, (5S,8S,11S)—N-Cyclopentyl-11-(1,1-dioxidoisothiazolidin-2-yl)-8-(2-morpholinoethyl)-7,10-dioxo-2-oxa-6,9-diaza-1,3(1,3)-dibenzenacyclododecaphane-5-carboxamide] |  |  | 15 |
| CC(C)CNC(=O)[C@@H]1Cc2cccc(c2)Oc2cccc(c2)C[C@H](NC(=O)c2cn(C)cn2)C(=O)N[C@@H](CCc2ccccc2)C(=O)N1 [Compound 1-32] | 8.86 |  |  |
| O=C(N[C@H]1Cc2cccc(c2)Oc2cccc(c2)C[C@@H](C(=O)NCc2ccccc2)NC(=O)[C@H](CCc2ccccc2)NC1=O)c1ccccn1 [Compound 1-12] | 3.2 |  |  |
| CS(=O)(=O)CCNC(=O)[C@@H]1Cc2cccc(c2)Oc2cccc(c2)C[C@H](NC(=O)CO)C(=O)N[C@@H](CCc2ccccc2)C(=O)N1 [Compound 1-46] | 9.5 |  |  |
| O=C1N[C@@H](CC(=O)N2CCCC2)C(=O)N[C@H](C(=O)NCc2cccc3ccccc23)CCCCCCCCCC1Cc1ccccc1 (stereo in doubt) [Compound 4-04, (2S,5S,15S)-15-Benzyl-N-(naphthalen-1-ylmethyl)-3,16-dioxo-2-(2-oxo-2-(pyrrolidin-1-yl)ethyl)-1,4-diazacyclohexadecane-5-carboxamide] |  | 61.3 |  |
| CCNC(=O)[C@@H]1Cc2cccc(c2)Oc2cccc(c2)C[C@H](N(CC)CC)C(=O)N[C@@H](CCc2ccccc2)C(=O)N1 [Compound 1-27] | 1.14 |  |  |
| O=C(CO)N[C@H]1Cc2cccc(c2)Oc2cccc(c2)C[C@@H](C(=O)NCc2ccccc2)NC(=O)[C@H](CCc2ccccc2)NC1=O [Compound 1-11] | 1.93 |  |  |

The next lines start with results.

| IC50 (β5c of hu c-20S) [µM] | IC50 (β5i of hu i-20S) [µM] | SMILES | % @ […], hu i-20S (β5i of hu i-20S; compound at […]) [% @ 33.3 μM] |
| --- | --- | --- | --- |
| 42.5 | 6.6 | O=C(NCc1ccccc1)[C@@H]1Cc2cccc(c2)Oc2cccc(c2)C[C@H](N2CCCC2)C(=O)N[C@@H](CCc2ccccc2)C(=O)N1 [Compound 1-17] |  |
|  | 68 | O=C1N[C@H](CO)CCCCOc2cccc(c2)C[C@H](N2CCCC2=O)C(=O)N[C@H]1CCc1ccccc1 [Compound 3-06, (7S,10S,13S)-7-(Hydroxymethyl)-13-(2-oxopyrrolidin-1-yl)-10-phenethyl-2-oxa-8,11-diaza-1(1,3)-benzenacyclotetradecaphane-9,12-dione] |  |
| 12.3 | > 100 | O=C1CCc2cccc(c2)OCCCC[C@@H](C(=O)NC2CCCC2)NC(=O)[C@H](CC(=O)N2CCCC2C2CC2)N1 (single isomer, unassigned) [Compound 3-45-A] |  |
| 9.5 | > 100 | CN(C)[C@H]1Cc2cccc(c2)OCCCC[C@@H](C(=O)NC2CCCC2)NC(=O)[C@H](CCc2ccc(F)cc2)NC1=O [Compound 3-36] |  |
| 75.5 | > 100 | O=C1CCc2cccc(c2)OCCCC[C@@H](C(=O)NC2CCCC2)NC(=O)[C@H](CCN2CCC(F)(F)CC2)N1 [Compound 3-43] |  |
| 18.5 | 10.1 | O=C1CCc2cccc(c2)Oc2ccc(cc2)C[C@@H](C(=O)NCc2cccc3ccccc23)NC(=O)[C@H](CC(=O)N2CCCC2)N1 (single isomer, unassigned) [Compound 2-03-A, N-(Naphthalen-1-ylmethyl)-7,10-dioxo-8-(2-oxo-2-(pyrrolidin-1-yl)ethyl)-2-oxa-6,9-diaza-1(1,3),3(1,4)-dibenzenacyclododecaphane-5-carboxamide] |  |
| 56 | > 100 | O=C1CCc2cccc(c2)OCCCC[C@@H](C(=O)NCc2ccccc2F)NC(=O)[C@H](CCc2ccc(F)cc2)N1 [Compound 3-41] |  |
| > 100 | 0.96 | O=C1CCc2cccc(c2)Oc2ccc(cc2)CC(C(=O)NCc2cccc3ccccc23)NC(=O)C(CC(=O)N2CCCC2)N1 (stereo not drawn) [Compound 2-03-B, N-(Naphthalen-1-ylmethyl)-7,10-dioxo-8-(2-oxo-2-(pyrrolidin-1-yl)ethyl)-2-oxa-6,9-diaza-1(1,3),3(1,4)-dibenzenacyclododecaphane-5-carboxamide] |  |
| 0.88 | 0.11 | O=C1CCCCCCCCCC[C@@H](C(=O)NCc2ccccc2F)NC(=O)[C@H](CC(=O)N2CCCC2C2COC2)N1 (stereo partly drawn) [Compound 4-17] |  |
| 3.6 | > 100 | O=C1CCc2cccc(c2)OCCCC[C@@H](C(=O)NC2CCCC2)NC(=O)[C@H](CC(=O)N2CCCC2C2CC2)N1 (single isomer, unassigned) [Compound 3-45-B] |  |
| 0.78 | 15.6 | CC(=O)N[C@H]1Cc2cccc(c2)OC/C=C/C[C@@H](C(=O)NCC(F)(F)F)NC(=O)[C@H](CCc2ccccc2)NC1=O [Compound 3-01, (7S,10S,13S,E)-13-Acetamido-9,12-dioxo-10-phenethyl-N-(2,2,2-trifluoroethyl)-2-oxa-8,11-diaza-1(1,3)-benzenacyclotetradecaphan-4-ene-7-carboxamide] |  |
|  | > 100 | O=C1CCc2cccc(c2)Oc2cccc(c2)C[C@@H](C(=O)NC2CCCC2)NC(=O)[C@H](CCN2CCOCC2)N1 [Compound 1-89, (5S,8S)—N-Cyclopentyl-8-(2-morpholinoethyl)-7,10-dioxo-2-oxa-6,9-diaza-1,3(1,3)-dibenzenacyclododecaphane-5-carboxamide] |  |
| 4.57 |  | CN(C)CCC(=O)N[C@H]1Cc2cccc(c2)Oc2cccc(c2)C[C@@H](C(=O)NCC2CCCCN2C)NC(=O)[C@H](CCc2ccccc2)NC1=O (stereo partly drawn) [Compound 1-39] |  |
| 25.8 |  | CN1C(=O)[C@H](CCc2ccccc2)NC(=O)[C@@H](N2CCCC2=O)Cc2cccc(c2)OCCCC[C@H]1C(=O)NCC(F)(F)F [Compound 3-33] |  |
| 2.8 |  | CCC(=O)N[C@H]1Cc2cccc(c2)Oc2cccc(c2)C[C@@H](C(=O)NC2CCCC2)NC(=O)[C@H](CCc2ccccc2)NC1=O [Compound 1-19] |  |
| 6.21 |  | O=C(N[C@H]1Cc2cccc(c2)Oc2cccc(c2)C[C@@H](C(=O)NC2CCCC2)NC(=O)[C@H](CCc2ccccc2)NC1=O)c1ccccc1 [Compound 1-23] |  |
| 17.9 |  | O=C(NCC1CC1)[C@@H]1CCCCOc2cccc(c2)C[C@H](N2CCCC2=O)C(=O)N[C@@H](CCN2CCOCC2)C(=O)N1 [Compound 3-17, (7S,10S,13S)—N-(Cyclopropylmethyl)-10-(2-morpholinoethyl)-9,12-dioxo-13-(2-oxopyrrolidin-1-yl)-2-oxa-8,11-diaza-1(1,3)-benzenacyclotetradecaphane-7-carboxamide] |  |
| 0.542 |  | COC(=O)N[C@H]1Cc2cccc(c2)Oc2cccc(c2)C[C@@H](C(=O)NCC2CC2)NC(=O)[C@H](CCc2ccccc2)NC1=O [Compound 1-06] |  |
| 85.3 |  | O=C(NC[C@H]1CCCO1)[C@@H]1CCCCOc2cccc(c2)C[C@H](N2CCCC2=O)C(=O)N[C@@H](CCc2ccc(F)cc2)C(=O)N1 [Compound 3-30] |  |
